Laboratory results from patent US20050107400A1, “Use of pyrazolopyridines as therapeutic compounds” (priority 2001, published 2005).

These molecules were tested on HSV-1 (assay: HSV-1 replication in infected Vero 76 cells, DNA hybridization capture assay). Conditions: Human alphaherpesvirus 1; HSV-1 in Vero 76 cells, MOI=0.001, 40-48 hours at 37° C.; read-out: IC50.
Type: cell-based, herpes simplex virus 1
Experimental: a) Tissue Culture and HSV Infection.
Vero 76 cells were maintained in MEM with Earle's salts, L-glutamine, 8% FBS (Hyclone, A-1111-L) and 100 units/mL Penicillin-100 μg/mL Streptomycin. For assay conditions, FBS was reduced to 2%. Cells are seeded into 96-well tissue culture plates at a density of 5×10^4 cells/well after being incubated for 45 min at 37° C. in the presence of HSV-1 or HSV-2 (MOI=0.001). Test compounds are added to the wells and the plates are incubated at 37° C. for 40-48 hours. Cell lysates are prepared as follows: media was removed and replaced with 150 μL/well 0.2 N NaOH with 1% Igepal CA 630 or NP-40. Plates were incubated up to 14 days at room temperature in a humidified chamber to prevent evaporation.
(b) Preparation of Detection DNA.
For the detection probe, a gel-purified, digoxigenin-labeled, […] PCR fragment of the HSV UL-15 sequence was utilized. PCR conditions included 0.5 μM primers, 180 μM dTTP, 20 μM dUTP-digoxigenin (Boehringer Mannheim 1558706), 200 μM each of dATP, dCTP, and dGTP, 1×PCR Buffer II (Perkin Elmer), 2.5 mM MgCl2, 0.025 units/μL of AmpliTaq Gold polymerase (Perkin Elmer), and 5 ng of gel-purified HSV DNA per 100 μL Extension conditions were 10 min at 95° C., followed by 30 cycles of 95° C. for 1 min, 55° C. for 30 sec, and 72° C. for 2 min. The amplification was completed with a 10-min incubation at 72° C. Primers were selected to amplify a 728 bp probe spanning a section of the HSV1 UL15 open reading frame (nucleotides 249-977). Single-stranded transcripts were purified with Promega M13 Wizard kits. The final product was mixed 1:1 with a mixture of 6 M GuSCN, 100 mM EDTA and 200 μg/mL herring sperm DNA and stored at 4° C.
(c) Preparation of Capture Plates.
The capture DNA plasmid (HSV UL13 region in pUC) was linearized by cutting with Xba I, denatured for 15 min at 95° C. and diluted immediately into Reacti-Bind DNA Coating Solution (Pierce, 17250, diluted 1:1 with TE buffer, pH 8) at 1 ng/μL. 75 μL/well were added to Corning (#3922 or 9690) white 96-well plates and incubated at room temperature for at least 4 hrs before washing twice with 300 μL/well 0.2×SSC/0.05% Tween-20 (SSC/T buffer). The plates were then incubated overnight at room temperature with 150 μL/well 0.2 N NaOH, 1% IGEPAL and 10 μg/mL herring sperm DNA.
Twenty-seven (27) μL of cell lysate was combined with 45 μL of hybridization solution (final concentration: 3M GuSCN, 50 mM EDTA, 100 μg/ml salmon sperm DNA, 5×Denhardt's solution, 0.25×APE, and 5 ng of the digoxigenin-labeled detection probe). APE is 1.5 M NH4-acetate, 0.15 M NH4H2 phosphate, and 5 mM EDTA adjusted to pH 6.0. Mineral oil (50 μL) was added to prevent evaporation. The hybridization plates were incubated at 95° C. for 10 minutes to denature the DNA, then incubated at 42° C. overnight. The wells were washed 6× with 300 μL/well SSC/T buffer then incubated with 75 μL/well anti-digoxigenin-HRP-conjugated antibody (Boehringer Mannheim 1207733, 1:5000 in TE) for 30 min at room temperature. The wells were washed 6× with 300 μL/well with PBS/0.05% Tween-20 before 75 μL/well SuperSignal LBA substrate (Pierce) was added. The plates were incubated at room temperature for 30 minutes and chemiluminescence was measured in a Wallac Victor reader.
The following results were obtained for HSV-1.
In the case of Fc1ccc(-c2nn3cc(C(F)(F)F)ccc3c2-c2ccnc(NCc3ccccc3)n2)cc1 [Example 20, N-Benzyl-4-[2-(4-fluorophenyl)-6-trifluoromethylpyrazolo[1,5-a]pyridin-3-yl]-2-pyrimidinamine], the IC50 is reported as 16000 nM. Molecule COC(=O)c1ccc2c(-c3ccnc(NCCCOC(C)=O)c3)c(-c3ccc(F)cc3)nn2c1 [Example 45, Methyl 3-(2-{[3-(acetyloxy)propyl]-amino}-4-pyridinyl)-2-(4-fluorophenyl)pyrazolo[1,5-a]pyridine-6-carboxylate] has an IC50 of 2600 nM. With NC(=O)c1ccc2c(-c3ccnc(NCCCO)n3)c(-c3ccc(F)cc3)nn2c1 [Example 25, 2-(4-Fluorophenyl)-3-(4-(2-(3-hydroxypropyl)amino)pyrimidinyl)-6-pyrazolo-[1,5-a]pyridinylcarboxamide] the IC50 was 5500 nM. CCCCNc1nccc(-c2c(-c3ccc(F)cc3)nn3ccccc23)n1 [Example 16, N-Butyl-4-[2-(4-fluorophenyl)pyrazolo[1,5-a]pyridin-3-yl]-2-pyrimidin-amine] was tested, and the IC50 was > 20000 nM. With O=C(NC1CC1)c1ccc2c(-c3ccnc(NC4CC4)n3)c(-c3ccc(F)cc3)nn2c1 [Example 48, N-Cyclopropyl-3-[2-(cyclopropylamino)-4-pyrimidinyl]-2-(4-fluorophenyl)pyrazolo[1,5-a]pyridine-6-carboxamide] the IC50 was 900 nM. Fc1ccc(-c2nn3ccccc3c2-c2ccnc(NCc3ccccn3)n2)cc1 [Example 28, 4-[2-(4-Fluorophenyl)pyrazolo[1,5-a]pyridin-3-yl]-N-(2-pyridinylmethyl)-2-pyrimidinamine] gave an IC50 of 730 nM. CCCNc1cc(-c2c(-c3ccc(F)cc3)nn3ccccc23)ccn1 [Example 8, 4-[2-(4-Fluorophenyl)pyrazolo[1,5-a]pyridin-3-yl]-N-propyl-2-pyridinamine] showed an IC50 of 2800 nM. With N#Cc1ccc2c(-c3ccnc(NC4CC4)n3)c(-c3ccc(F)cc3)nn2c1 [Example 24, N-Cyclopropyl-4-[6-cyano-2-(4-fluorophenyl)pyrazolo[1,5-a]pyridin-3-yl]-2-pyrimidinamine] the IC50 was 200 nM. CCCCOc1cccc2c(-c3ccnc(NC4CCCC4)n3)c(-c3ccc(OC)cc3)nn12 [Example 228, 4-[7-Butoxy-2-(4-methoxyphenyl)pyrazolo[1,5-a]pyridin-3-yl]-N-cyclopentyl-2-pyrimidinamine] was tested, and the IC50 was 280 nM. In the case of CSc1cccc2c(-c3cc(NC4CCCC4)ncn3)c(-c3ccc(F)cc3)nn12 [Example 230, N-cyclopentyl-6-[2-(4-fluorophenyl)-7-(methylthio)pyrazolo[1,5-a]pyridin-3-yl]pyrimidin-4-amine], the IC50 is reported as 1300 nM. Molecule CCOC(OCC)(OCC)c1ccc2c(-c3ccnc(NC4CC4)n3)c(-c3ccc(OC)cc3)nn2c1 [Example 96, N-Cyclopropyl-4-[2-(4-methoxyphenyl)-6-(triethoxymethyl)pyrazolo[1,5-a]pyridin-3-yl]pyrimidin-2-amine] has an IC50 of 5500 nM. Fc1ccc(-c2nn3c(OCC(F)(F)F)cccc3c2-c2ccnc(NC3CCCCC3)n2)cc1 [Example 64, N-Cyclohexyl-4-[2-(4-fluorophenyl)-7-(2,2,2-trifluoroethoxy)pyrazolo[1,5-a]pyridin-3-yl]-2-pyrimidinamine] was tested, and the IC50 was 900 nM. In the case of Fc1ccc(-c2nn3ccccc3c2-c2ccnc(NCCc3cnc[nH]3)n2)cc1 [Example 26, 4-[2-(4-Fluorophenyl)pyrazolo[1,5-a]pyridin-3-yl]-N-[2-(1H-imidazol-5-yl)ethyl]-2-pyrimidinamine], the IC50 is reported as 150 nM. Molecule CN(C)C(=O)c1ccc2c(-c3ccnc(NC4CC4)n3)c(-c3ccc(F)cc3)nn2c1 [Example 47, 3-[2-(Cyclopropylamino)-4-pyrimidinyl]-2-(4-fluorophenyl)-N,N-dimethylpyrazolo[1,5-a]pyridine-6-carboxamide] has an IC50 of 1000 nM. In the case of OCCCNc1cc(-c2c(-c3ccc(F)cc3)nn3ccccc23)ccn1 [Example 3, 3-(4-[2-(4-Fluorophenyl)pyrazolo[1,5-a]pyridin-3-yl]-2-pyridinylamino)-1-propanol], the IC50 is reported as 1500 nM. Work on CN(C)c1cc(-c2c(-c3ccc(F)cc3)nn3cccc(F)c23)ccn1 [Example 41, 4-[4-Fluoro-2-(4-fluorophenyl)-pyrazolo[1,5-a]pyridin-3-yl]-N,N-dimethyl-2-pyridinamine] yielded an IC50 of 21600 nM. Molecule CCc1cccc2c(-c3ccnc(NC4CC4)n3)c(-c3ccc(F)cc3)nn12 [Example 87, N-Cyclopropyl-4-[7-ethyl-2-(4-fluorophenyl)pyrazolo[1,5-a]pyridin-3-yl]-2-pyrimidinamine] has an IC50 of 3000 nM. Molecule Cc1ccc2c(-c3ccnc(NC4CCCC4)n3)c(-c3ccc(F)cc3)nn2c1 [Example 34, N-Cyclopentyl-4-[2-(4-fluorophenyl)-6-methylpyrazolo[1,5-a]pyridin-3-yl]-2-pyrimidinamine] has an IC50 of 2000 nM. In the case of Fc1ccc(-c2nn3ccccc3c2-c2cc(F)nc(NCc3ccccc3)c2)cc1 [Example 12, N-Benzyl-6-fluoro-4-[2-(4-fluorophenyl)pyrazolo[1,5-a]pyridin-3-yl]-2-pyridinamine], the IC50 is reported as 3900 nM. For CCCCCNc1cc(-c2c(-c3ccc(F)cc3)nn3ccccc23)ccn1 [Example 30, 4-[2-(4-Fluorophenyl)pyrazolo[1,5-a]pyridin-3-yl]-N-pentyl-2-pyridinamine], the IC50 was 4000 nM. In the case of Fc1ccc(-c2nn3c(OCC(F)(F)F)cccc3c2-c2ccnc(OCC(F)(F)F)n2)cc1 [Example 68, 2-(4-Fluorophenyl)-3-(4-(2-(2,2,2-trifluoroethoxy))pyrimidinyl)-7-(2,2,2-trifluoroethoxy)pyrazolo[1,5-a]pyridine], the IC50 is reported as 15000 nM. In the case of Fc1ccc(-c2nn3cc(CNC4CCCC4)ccc3c2-c2ccnc(NC3CCCC3)n2)cc1 [Example 35, N-Cyclopentyl-4-[6-[(cyclopentylamino)methyl]-2-(4-fluorophenyl)-pyrazolo[1,5-a]pyridin-3-yl]-2-pyrimidinamine], the IC50 is reported as 4500 nM. CSc1cc(Cl)cc2c(-c3ccnc(NC4CCCC4)n3)c(-c3cccc(Cl)c3)nn12 [Example 229, 4-[5-Chloro-2-(3-chlorophenyl)-7-(methylsulfanyl)pyrazolo[1,5-a]pyridin-3-yl]-N-cyclopentyl-2-pyrimidinamine] was tested, and the IC50 was 1000 nM. Fc1ccc(-c2nn3ccccc3c2-c2ccnc(NCc3cccnc3)c2)cc1 [Example 7, 4-[2-(4-Fluorophenyl)pyrazolo[1,5-a]pyridin-3-yl]-N-(3-pyridinylmethyl)-2-pyridinamine] showed an IC50 of 6200 nM. With CCCCCCNc1cc(-c2c(-c3ccc(F)cc3)nn3ccccc23)ccn1 [Example 5, 4-[2-(4-Fluorophenyl)pyrazolo[1,5-a]pyridin-3-yl]-N-hexyl-2-pyridinamine] the IC50 was 5000 nM. For COc1ccc(-c2nn3ccccc3c2-c2ccnc(NC3CCCC3)n2)c(OC)c1 [Example 92, N-Cyclopentyl-4-[2-(2,4-dimethoxyphenyl)pyrazolo[1,5-a]pyridin-3-yl]pyrimidin-2-amine], the IC50 was 20000 nM. CCCCNc1nccc(-c2c(-c3ccc(F)cc3)nn3c(OCC(F)(F)F)cccc23)n1 [Example 60, N-Butyl-4-[2-(4-fluorophenyl)-7-(2,2,2-trifluoroethoxy)pyrazolo[1,5-a]pyridin-3-yl]-2-pyrimidinamine] showed an IC50 of 5000 nM. CCCCNc1nccc(-c2c(-c3ccc(F)cc3)nn3cc(C(F)(F)F)ccc23)n1 [Example 31, N-Butyl-4-[2-(4-fluorophenyl)-6-trifluoromethylpyrazolo-[1,5-a]pyridin-3-yl]-2-pyrimidinamine] showed an IC50 of 1700 nM. CCCCNc1nccc(-c2c(-c3ccc(F)cc3)nn3c(C)cccc23)n1 [Example 85, N-Butyl-4-[2-(4-fluorophenyl)-7-methylpyrazolo[1,5-a]pyridin-3-yl]-2-pyrimidinamine] gave an IC50 of 1000 nM.
